In patent US20220144775A1, “HYDRAZIDE COMPOUND AND KINASE INHIBITOR” (NISSAN CHEMICAL CORPORATION, priority 2019, published 2022):

Assays:
[1] = tested on: Colitis model administered with dextran sulfate sodium (DSS); experiment: Inflammation suppressive effect on DSS colitis model mouse; format: in vivo; conditions: C57BL/6NCrl mice; 2.5 w/v % DSS drinking water; 50 mg/kg intraperitoneally every 24 hr; day 8; FIG. 3
Description: Colitis model administered with dextran sulfate sodium (DSS) (manufactured by FUJIFILM Wako Pure Chemical Corporation) was produced as described below. The length of the large intestine is used as a morphological parameter in the evaluation of colitis, and the large intestine shortens according to the degree of inflammation. Therefore, the anti-inflammatory effect of the compound was evaluated by comparing the length of the large intestine. As the Buffer, a 0.5 w/v % methylcellulose aqueous solution (manufactured by FUJIFILM Wako Pure Chemical Corporation) added with Dimethyl sulfoxide (manufactured by FUJIFILM Wako Pure Chemical Corporation) at 1 v/v % was used. It was prepared by suspending compound A-004A in the above-mentioned Buffer at 5 mg/mL. As the mouse, male C57BL/6NCrl, 6-week-old, was purchased from CHARLES RIVER LABORATORIES JAPAN, INC. As drinking water, distilled water or a 2.5 w/v % DSS aqueous solution was freely given. The DSS drinking start date was set as day 1, and the water was given until day 8. Compound A-004A was intraperitoneally administered at 50 mg/kg every 24 hr from day 1. As a negative control, Buffer alone was administered similarly. On day 8, the mouse was dissected, the large intestine was isolated and the length of the large intestine was measured. Conducted in 3-4 cases in each group.

YAP = YAP phosphorylation inhibitory action in SKOV3 (HTRF); format: cell-based, human; conditions: 10 μM, 1 hr, non-treatment 100%
Description: Human ovarian cancer cell line SKOV3 (manufactured by DS Pharma Biomedical Co., Ltd.) was precultured using a 15% FBS-containing McCoy's 5a medium (manufactured by Sigma-Aldrich) (single layer culture). The above-mentioned cells in the logarithmic growth phase were washed with PBS. A 0.25% (w/v) trypsin-1 mmol/L ethylenediaminetetraacetic acid (EDTA) solution (manufactured by FUJIFILM Wako Pure Chemical Corporation) was added and the adherent cells were incubated at 37° C. for 3 min and detached. The above-mentioned medium was added, and the cells were centrifuged and resuspended in the same medium.
According to the method of patent document 1 (WO 2014/017513), a composition of 10% FBS-containing DMEM medium (Phenol-red free, manufactured by FUJIFILM Wako Pure Chemical Corporation) containing 0.015% (w/v) deacylated gellan gum (KELCOGEL CG-LA, manufactured by SANSHO Co., Ltd.) was prepared using FCeM-series Preparation Kit (manufactured by FUJIFILM Wako Pure Chemical Corporation). Then, various cells prepared above were suspended in the above-mentioned medium composition (3D culture conditions) added with deacylated gellan gum or a medium without the addition (2D culture conditions), and seeded on a 50 μL/well (manufactured by Corning Incorporated, a 96 well flat bottom plate, #3585, 2D culture conditions) or 25 μL/well (manufactured by Corning Incorporated, 96 well low adhesion flat bottom plate, #3474) at 100000 cells/well. The plate was allowed to stand at 37° C. in a 5% CO2 incubator, and the compound of the present invention diluted with the medium at 2 or 6 times the final concentration, DMSO, or the medium alone was added to the plate 3 hr after the seeding at 50 μL/well (2D culture conditions) or 5 μL/well (3D culture conditions) to make the final concentration of each compound 10 μM. After culture at 37° C. in a 5% CO2 incubator for 1 hr, the supernatant was aspirated, supplemented Lysis buffer (1-fold concentration, manufactured by Cisbio, YAP-total kit or YAP phospho-S27 kit) (50 μL) was added under 2D culture conditions, and supplemented Lysys buffer (4-fold concentration) (10 μL) was added to the culture supernatant under 3D conditions, and the mixture was stirred by a plate shaker for 30 min. Thereafter, the plate was centrifuged, 16 μL of the supernatant was transferred to a 384-well white plate (Corning, #4512), and each antibody solution (pYAP d2 antibody or Total-YAP d2 antibody, and pYAP Cryptate antibody or Total-YAP Cryptate antibody) included in the kit was added at 4 μL/well in total, and the mixture was allowed to stand at room temperature overnight. As a blank control, pYAP Cryptate antibody or Total-YAP Cryptate antibody alone was added to cells free of stimulation with compound and the mixture was treated in the same manner. The next day, the wavelengths at 665 nm and 615′ nm were measured in the HTRF mode of EnVision (manufactured by PerkinElmer).
The obtained signal was calculated as follows. Ratio=signal (665 nm)/signal (615 nm)×10000, ΔR=Signal(Ratio)−Background fluorescence, and the relative phosphorylated YAP amount or total YAP amount for each compound when ΔR of the compound non-addition group (non-treatment) is 100% is shown in Tables 7 and 8 (2D culture), and Tables 9 and 10 (3D culture). From the results, it was shown that the compound of the present zo invention has a YAP phosphorylation inhibitory action under both 2D and 3D culture conditions.

MDCK cells = experiment: Observation of Cyst form with confocal fluorescence microscope; format: cell-based, canine; conditions: 10 μM; β catenin, Phalloidin, DAPI staining; FIG. 1
Description: As for the respective Matrix GFRs containing Cyst cultured in a medium added with DMSO or A-004A (10 μM) and obtained in Experimental Example 3, the cells were washed with PBS (1 mL/well), 4% paraformaldehyde/PBS (manufactured by FUJIFILM Wako Pure Chemical Corporation) was added (1 mL/well) and fixed at room temperature for 20 min. Thereafter, the supernatant was removed, staining buffer [0.2% Triton X-100 (manufactured by Sigma-Aldrich), 0.05% Tween 20 (manufactured by Sigma-Aldrich)-containing PBS] were added at 1 mL/well, stood for 30 min and removed. Penetration buffer (0.5% Triton X-100 (manufactured by Sigma-Aldrich)/PBS) was added at 1 mL/well and incubated at room temperature for 30 min. The supernatant was removed, washed 3 times every 5 min with staining buffer, blocking buffer (1% bovine serum albumin (BSA manufactured by Sigma-Aldrich)/staining buffer) was added at 0.5 mL/well and incubated for 30 min. The supernatant was removed, an anti-β catenin antibody (manufactured by BD Bioscience) diluted 100-fold with blocking buffer was added at 250 μL/well, and the cells were incubated at room temperature for 60 min. […]

LATS2 = molecular target: T1, LATS2 (Homo sapiens, UniProt Q9NRM7); experiment: Kinase inhibitory activity against LATS2 (ADP quantification); format: biochemical; conditions: final concentration 1000 nM; ATP 400 μM; read-out: kinase inhibitory rate
T1 construct: purchased Carna Biosciences
T1 sequence (Q9NRM7 1-1088): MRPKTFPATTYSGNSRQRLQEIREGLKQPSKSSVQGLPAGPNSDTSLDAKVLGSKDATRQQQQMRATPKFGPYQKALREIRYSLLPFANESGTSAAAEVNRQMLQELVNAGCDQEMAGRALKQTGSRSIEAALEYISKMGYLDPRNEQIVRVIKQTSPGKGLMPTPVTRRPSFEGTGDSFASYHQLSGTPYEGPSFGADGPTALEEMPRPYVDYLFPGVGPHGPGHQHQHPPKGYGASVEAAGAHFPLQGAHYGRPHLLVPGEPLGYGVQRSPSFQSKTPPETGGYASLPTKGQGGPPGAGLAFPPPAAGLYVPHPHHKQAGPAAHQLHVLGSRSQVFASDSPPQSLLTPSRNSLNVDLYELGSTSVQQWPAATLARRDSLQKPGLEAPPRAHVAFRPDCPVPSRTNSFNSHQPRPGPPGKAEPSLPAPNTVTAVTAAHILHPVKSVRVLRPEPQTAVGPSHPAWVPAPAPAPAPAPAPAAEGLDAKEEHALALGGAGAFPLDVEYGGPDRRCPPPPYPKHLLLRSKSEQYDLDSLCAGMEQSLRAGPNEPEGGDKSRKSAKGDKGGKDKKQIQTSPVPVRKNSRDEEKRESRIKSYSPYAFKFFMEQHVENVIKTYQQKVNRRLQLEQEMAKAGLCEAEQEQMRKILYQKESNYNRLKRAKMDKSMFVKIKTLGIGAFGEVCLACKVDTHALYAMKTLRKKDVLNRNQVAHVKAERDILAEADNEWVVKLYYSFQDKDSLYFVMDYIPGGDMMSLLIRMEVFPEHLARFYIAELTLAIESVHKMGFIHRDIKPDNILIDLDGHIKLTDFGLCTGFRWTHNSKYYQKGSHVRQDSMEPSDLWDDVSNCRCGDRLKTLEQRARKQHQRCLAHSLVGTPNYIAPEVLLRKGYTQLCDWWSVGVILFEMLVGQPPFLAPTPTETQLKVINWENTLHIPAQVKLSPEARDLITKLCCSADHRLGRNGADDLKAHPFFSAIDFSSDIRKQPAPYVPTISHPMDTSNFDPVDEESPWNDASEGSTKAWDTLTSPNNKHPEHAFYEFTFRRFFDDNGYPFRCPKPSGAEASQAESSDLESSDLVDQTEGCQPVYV
Description: (§1) Evaluation of the inhibitory activity (calculation of kinase inhibitory rate) of the compound of the present invention against LATS1 and LATS2 (manufactured by Carna Biosciences) was performed. The activity was measured using the Kinase Assay method described below. The test concentration of the compound of the present invention was set such that the final concentration was 100 nM or 1000 nM.
(§2) As the analysis method of the data, the mean signal of the control well containing reaction components other than the compound of the present invention was set to 0% inhibition, the mean signal without enzyme addition was set to 100% inhibition, and the inhibition rate was calculated from the mean signal of 2 wells of each compound.
(§3) 2 μL of a compound of the present invention solution at 2.5-fold concentration, 1 μL of substrate at 5-fold concentration (SGKtide: NH2-CKKRNRRLSVA-COOH, manufactured by SignalChem), ATP (manufactured by Sigma-Aldrich), MgCl2 (manufactured by FUJIFILM Wako Pure Chemical Corporation) solution (final concentration 10 μM, 400 μM and 5 mM, respectively), and 2 μL of kinase solution at 2.5-fold concentration (final concentration of LATS1 or LATS2 5 μg/mL), each prepared with assay buffer (20 mM HEPES, 0.01% Triton X-100, 2 mM DTT, 50 μg/mL BSA, pH 7.5), were mixed in the wells of a polypropylene 384-well plate (manufactured by Greiner Bio-One, #784900) and reacted at room temperature for 5 hr. To the solution was added 5 μL detection solution [Fluorospark (registered trade mark) Kinase/ADP Multi-Assay Kit; manufactured by FUJIFILM Wako Pure Chemical Corporation], and the mixture was reacted at room temperature for 30 min. Successively, 5 μL of a reaction quenching liquid [Fluorospark (registered trade mark) Kinase/ADP Multi-Assay Kit; manufactured by FUJIFILM Wako Pure Chemical Corporation] was added to discontinue the reaction. Thereafter, the ADP concentration of the reaction solution was quantified by EnSpire (manufactured by PerkinElmer) to detect the kinase reaction.

LATS1 = molecular target: T2, LATS1 (Homo sapiens, UniProt O95835); experiment: Kinase inhibitory activity against LATS1 (ADP quantification); format: biochemical; conditions: final concentration 1000 nM; ATP 400 μM; read-out: kinase inhibitory rate
T2 construct: purchased Carna Biosciences
T2 sequence (O95835 1-1130): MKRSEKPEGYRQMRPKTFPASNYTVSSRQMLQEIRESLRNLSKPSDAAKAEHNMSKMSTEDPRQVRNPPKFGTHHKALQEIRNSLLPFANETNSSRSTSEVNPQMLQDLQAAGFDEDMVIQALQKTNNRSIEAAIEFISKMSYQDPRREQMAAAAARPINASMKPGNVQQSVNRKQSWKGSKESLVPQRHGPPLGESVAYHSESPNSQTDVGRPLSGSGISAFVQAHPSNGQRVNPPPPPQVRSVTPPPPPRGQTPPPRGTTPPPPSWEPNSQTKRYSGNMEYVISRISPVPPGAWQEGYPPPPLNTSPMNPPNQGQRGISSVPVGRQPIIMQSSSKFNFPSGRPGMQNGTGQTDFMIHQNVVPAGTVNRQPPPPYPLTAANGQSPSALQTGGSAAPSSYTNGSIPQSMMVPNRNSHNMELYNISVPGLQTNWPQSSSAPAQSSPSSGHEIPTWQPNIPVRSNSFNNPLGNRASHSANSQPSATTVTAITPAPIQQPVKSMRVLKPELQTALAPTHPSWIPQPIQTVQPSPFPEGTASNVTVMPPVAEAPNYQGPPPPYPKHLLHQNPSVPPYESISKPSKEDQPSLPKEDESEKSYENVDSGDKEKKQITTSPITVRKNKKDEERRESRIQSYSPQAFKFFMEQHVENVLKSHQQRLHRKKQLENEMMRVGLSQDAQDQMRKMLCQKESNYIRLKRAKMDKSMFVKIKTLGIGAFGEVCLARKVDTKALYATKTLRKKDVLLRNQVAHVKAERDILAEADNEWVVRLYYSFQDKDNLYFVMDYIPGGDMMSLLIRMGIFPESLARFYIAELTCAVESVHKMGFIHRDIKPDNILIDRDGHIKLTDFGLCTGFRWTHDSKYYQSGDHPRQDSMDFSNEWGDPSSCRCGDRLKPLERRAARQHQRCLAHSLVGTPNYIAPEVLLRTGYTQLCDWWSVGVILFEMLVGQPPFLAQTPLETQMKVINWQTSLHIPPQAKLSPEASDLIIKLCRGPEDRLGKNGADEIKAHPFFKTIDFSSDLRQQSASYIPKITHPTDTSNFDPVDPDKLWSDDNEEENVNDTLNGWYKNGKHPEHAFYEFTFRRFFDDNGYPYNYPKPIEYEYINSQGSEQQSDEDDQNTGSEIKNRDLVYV
Description: as §1, §2, §3

Row | SMILES | length of the large intestine [1] | phosphorylated YAP amount (%) (YAP; 2D culture conditions) | total YAP amount (%) (YAP; 2D culture conditions) | phosphorylated YAP amount (%) (YAP; 3D culture conditions) | total YAP amount (%) (YAP; 3D culture conditions) | Cyst form (MDCK cells) | inhibition at 1 µM (LATS2) [%] | inhibition at 1 µM (LATS1) [%]
1 | CC/C(=N\NC(=O)C(C)Nc1cccnc1)c1ccc(O)c(C)c1O (single isomer, unassigned) [A-004A, (E)-N′-(1-(2,4-dihydroxy-3-methylphenyl)propylidene)-2-(pyridin-3-ylamino)propanehydrazide] | shortening of the large intestine was suppressed more | 14 | 97 | 11 | 112 | Cyst with a normal form was formed |  | 
2 | CC/C(=N\NC(=O)C(C)Oc1cccnc1)c1ccc(O)c(C)c1O (centres unmarked) [C-001, (E)-N′-(1-(2,4-dihydroxy-3-methylphenyl)propylidene)-2-(pyridin-3-yloxy)propanehydrazide] |  |  |  |  |  |  | ≥ 40 | ≥ 40
